Source: ChEMBL document CHEMBL1932924, “Design, synthesis, and biological evaluation of 4-phenylpyrrole derivatives as novel androgen receptor antagonists” (Bioorg Med Chem, 2012)
pEC50, pIC50: −log10 of the molar value.

How the values were obtained:
[1] = target: T1, Androgen receptor (Homo sapiens, UniProt P10275); experiment: Displacement of [17-alpha-methyl-3H]-mibolerone from human androgen receptor expressed in HEK293 derived FreeStyle293F cells after 3 hrs; type: cell-based
T1 sequence (P10275 whole entry): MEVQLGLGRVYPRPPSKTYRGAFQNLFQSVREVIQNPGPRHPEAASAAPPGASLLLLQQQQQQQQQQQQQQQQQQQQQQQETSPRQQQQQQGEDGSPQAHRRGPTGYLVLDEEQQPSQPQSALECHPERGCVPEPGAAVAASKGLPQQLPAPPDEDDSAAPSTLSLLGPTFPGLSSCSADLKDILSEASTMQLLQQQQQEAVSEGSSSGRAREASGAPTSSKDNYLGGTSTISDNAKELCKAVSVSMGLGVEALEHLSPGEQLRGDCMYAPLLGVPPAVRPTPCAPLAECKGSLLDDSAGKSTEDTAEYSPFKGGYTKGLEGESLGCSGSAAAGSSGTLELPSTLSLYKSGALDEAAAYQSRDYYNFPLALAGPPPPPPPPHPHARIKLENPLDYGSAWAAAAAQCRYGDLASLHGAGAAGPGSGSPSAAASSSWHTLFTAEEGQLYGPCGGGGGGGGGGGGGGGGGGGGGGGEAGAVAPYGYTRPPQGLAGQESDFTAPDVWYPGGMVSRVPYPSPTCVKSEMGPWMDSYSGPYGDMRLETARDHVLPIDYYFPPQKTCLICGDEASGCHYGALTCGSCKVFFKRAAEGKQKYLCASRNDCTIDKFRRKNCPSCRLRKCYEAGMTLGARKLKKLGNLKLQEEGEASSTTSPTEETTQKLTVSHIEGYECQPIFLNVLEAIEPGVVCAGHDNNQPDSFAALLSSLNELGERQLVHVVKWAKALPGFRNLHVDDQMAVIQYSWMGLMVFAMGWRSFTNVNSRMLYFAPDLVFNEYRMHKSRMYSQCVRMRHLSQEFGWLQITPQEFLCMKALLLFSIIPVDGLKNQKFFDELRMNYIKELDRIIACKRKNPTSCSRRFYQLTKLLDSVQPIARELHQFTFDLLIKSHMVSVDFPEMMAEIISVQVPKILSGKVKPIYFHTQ

[2] = target: T1, Androgen receptor; experiment: Agonist activity at human androgen receptor expressed in COS7 cells assessed as luciferase activity after 24 hrs by reporter gene assay; type: functional, cell-based, COS-7
[3] = target: T2, Androgen receptor (Homo sapiens, UniProt P10275, T878A); experiment: Displacement of [17-alpha-methyl-3H]-mibolerone from human androgen receptor T877A mutant expressed in HEK293 derived FreeStyle293F cells after 3 hrs; type: cell-based
[4] = target: T2, Androgen receptor; experiment: Antagonist activity at human androgen receptor T877A mutant expressed in COS7 cells assessed as inhibition of DHT-induced luciferase activity after 24 hrs by reporter gene assay; type: functional, cell-based, COS-7
[5] = target: T2, Androgen receptor; experiment: Agonist activity at human androgen receptor T877A mutant expressed in COS7 cells assessed as luciferase activity after 24 hrs by reporter gene assay; type: functional, cell-based, COS-7
[6] = target: T3, Androgen receptor (Homo sapiens, UniProt P10275, W742C); experiment: Antagonist activity at human androgen receptor W741C mutant expressed in COS7 cells assessed as inhibition of DHT-induced luciferase activity after 24 hrs by reporter gene assay; type: functional, cell-based, COS-7
[7] = target: T3, Androgen receptor; experiment: Agonist activity at human androgen receptor W741C mutant expressed in COS7 cells assessed as luciferase activity after 24 hrs by reporter gene assay; type: functional, cell-based, COS-7
[8] = target: T1, Androgen receptor; experiment: Antagonist activity at human androgen receptor expressed in COS7 cells assessed as inhibition of DHT-induced luciferase activity after 24 hrs by reporter gene assay; type: functional, cell-based, COS-7

T2 sequence (P10275 whole entry T878A): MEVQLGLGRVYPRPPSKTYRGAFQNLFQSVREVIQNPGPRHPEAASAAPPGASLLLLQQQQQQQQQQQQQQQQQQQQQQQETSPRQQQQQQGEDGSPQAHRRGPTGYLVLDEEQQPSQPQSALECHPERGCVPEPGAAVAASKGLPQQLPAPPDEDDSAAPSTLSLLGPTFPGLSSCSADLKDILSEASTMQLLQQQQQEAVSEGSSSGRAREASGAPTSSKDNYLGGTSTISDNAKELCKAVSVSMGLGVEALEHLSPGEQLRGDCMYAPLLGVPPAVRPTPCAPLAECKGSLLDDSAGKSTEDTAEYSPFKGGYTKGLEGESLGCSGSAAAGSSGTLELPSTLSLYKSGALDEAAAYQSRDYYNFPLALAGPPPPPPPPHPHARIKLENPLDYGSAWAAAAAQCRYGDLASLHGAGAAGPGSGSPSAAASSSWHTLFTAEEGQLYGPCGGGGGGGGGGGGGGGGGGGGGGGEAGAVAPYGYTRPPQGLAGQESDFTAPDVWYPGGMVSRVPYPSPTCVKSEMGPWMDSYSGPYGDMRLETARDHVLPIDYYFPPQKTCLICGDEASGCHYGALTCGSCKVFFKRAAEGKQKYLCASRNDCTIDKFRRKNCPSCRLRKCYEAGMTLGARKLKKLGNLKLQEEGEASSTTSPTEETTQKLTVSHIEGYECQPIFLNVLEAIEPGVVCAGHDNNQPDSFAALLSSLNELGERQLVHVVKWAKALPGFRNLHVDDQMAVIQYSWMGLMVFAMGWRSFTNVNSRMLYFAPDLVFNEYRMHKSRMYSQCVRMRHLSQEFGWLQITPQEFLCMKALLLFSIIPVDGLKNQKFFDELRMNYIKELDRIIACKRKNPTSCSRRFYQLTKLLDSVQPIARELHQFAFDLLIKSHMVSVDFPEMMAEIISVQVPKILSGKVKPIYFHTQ
T3 sequence (P10275 whole entry W742C): as the sequence (P10275 whole entry T878A) above, with W742C, A878T counted along it

## CCOC(=O)c1c(-c2ccc([N+](=O)[O-])cc2)c(C)n(CCc2ccccc2)c1C
[1]
  pIC50: 6.82
[2]
  pEC50: < 5.00
[3]
  pIC50: 7.28
[4]
  pIC50: 6.01
[5]
  pEC50: < 5.00
[6]
  pIC50: < 5.00
[7]
  pEC50: < 5.00
[8]
  pIC50: 5.39

## CCOC(=O)c1c(C)[nH]c(C)c1-c1ccc([N+](=O)[O-])cc1
[1]
  pIC50: 7.66
[2]
  pEC50: < 5.00
[3]
  pIC50: 7.47
[4]
  pIC50: 6.47
[5]
  pEC50: < 5.00
[6]
  pIC50: 5.38
[7]
  pEC50: < 5.00
[8]
  pIC50: 6.62

## CCOC(=O)c1c(-c2ccc([N+](=O)[O-])cc2)c(C)n(C)c1C
[1]
  pIC50: 7.33
[2]
  pEC50: < 5.00
[3]
  pIC50: 7.52
[4]
  pIC50: 6.68
[5]
  pEC50: < 5.00
[6]
  pIC50: 5.21
[7]
  pEC50: < 5.00
[8]
  pIC50: 6.30

## CCOC(=O)c1c(-c2ccc([N+](=O)[O-])cc2)c(C)n(-c2ccccc2)c1C
[1]
  pIC50: 6.26
[2]
  pEC50: < 5.00
[3]
  pIC50: 6.66
[4]
  pIC50: 5.68
[5]
  pEC50: < 5.00
[6]
  pIC50: < 5.00
[7]
  pEC50: < 5.00
[8]
  pIC50: 5.37

## CCOC(=O)c1c(-c2ccc([N+](=O)[O-])cc2)c(C)n(Cc2ccccc2)c1C
[1]
  pIC50: 8.26
[2]
  pEC50: < 5.00
[3]
  pIC50: 8.28
[4]
  pIC50: 6.80
[5]
  pEC50: < 5.00
[6]
  pIC50: 5.49
[7]
  pEC50: < 5.00
[8]
  pIC50: 6.47

## CCOC(=O)c1c(-c2ccc([N+](=O)[O-])cc2)c(C)n(CC2CCCCC2)c1C
[1]
  pIC50: 6.51
[2]
  pEC50: < 5.00
[3]
  pIC50: 6.46
[4]
  pIC50: 5.43
[5]
  pEC50: < 5.00
[6]
  pIC50: 5.14
[7]
  pEC50: < 5.00
[8]
  pIC50: 5.42

## CCOC(=O)c1c(-c2ccc([N+](=O)[O-])cc2)c(C)n(C(=O)c2ccccc2)c1C
[1]
  pIC50: 6.82
[2]
  pEC50: < 5.00
[3]
  pIC50: 7.07
[4]
  pIC50: 5.82
[5]
  pEC50: < 5.00
[6]
  pIC50: 5.11
[7]
  pEC50: < 5.00
[8]
  pIC50: 5.62

## CCOC(=O)c1c(-c2ccc([N+](=O)[O-])cc2)c(C)n(S(=O)(=O)c2ccccc2)c1C
[1]
  pIC50: 6.89
[2]
  pEC50: < 5.00
[3]
  pIC50: 7.21
[4]
  pIC50: 5.33
[5]
  pEC50: < 5.00
[6]
  pIC50: < 5.00
[7]
  pEC50: < 5.00
[8]
  pIC50: 5.33

## COC(=O)c1c(-c2ccc([N+](=O)[O-])cc2)c(C)n(Cc2ccccc2)c1C
[1]
  pIC50: 8.30
[2]
  pEC50: < 5.00
[3]
  pIC50: 8.42
[4]
  pIC50: 6.82
[5]
  pEC50: < 5.00
[6]
  pIC50: 6.13
[7]
  pEC50: < 5.00
[8]
  pIC50: 6.52

## Cc1c(C(=O)O)c(-c2ccc([N+](=O)[O-])cc2)c(C)n1Cc1ccccc1
[1]
  pIC50: 6.21
[2]
  pEC50: < 5.00
[3]
  pIC50: 6.72
[4]
  pIC50: 5.19
[5]
  pEC50: < 5.00
[6]
  pIC50: < 5.00
[7]
  pEC50: < 5.00
[8]
  pIC50: 5.06

## Cc1c(CO)c(-c2ccc([N+](=O)[O-])cc2)c(C)n1Cc1ccccc1
[1]
  pIC50: 6.52
[2]
  pEC50: < 5.00
[3]
  pIC50: 7.04
[4]
  pIC50: 6.18
[5]
  pEC50: < 5.00
[6]
  pIC50: < 5.00
[7]
  pEC50: < 5.00
[8]
  pIC50: 5.42
